In US8586579B2, “Anellated pyridine compounds” (Hoffmann-La Roche Inc., priority 2010, dated 2013):
pKi: −log10 of the molar value. Read-outs that look alike come from different tables or passages of the source.

Tests used:
human 5-HT2A receptor = human 5-HT2A receptor (Homo sapiens (Human), UniProt P28223); experiment: Radioligand binding assay, [3H]-ketanserin, human 5-HT2A receptor
Experimental: (§1) HEK293 EBNA cells were transiently transfected with expression plasmids encoding for the human D2 or D3 or for the human 5-HT2A receptor, respectively. The cells were harvested 48 h post-transfection, washed three times with cold PBS and stored at −80° C. prior to use. The pellet was suspended in cold 50 mM Tris-HCl buffer comprising 10 mM EDTA (pH 7.4) and was homogenized with a Polytron (Kinematica AG, Basel, Switzerland) for 20-30 sec at 12.000 rpm. After centrifugation at 48.000×g for 30 min at 4° C., the pellet was resuspended in cold 10 mM Tris-HCl buffer comprising 0.1 mM EDTA (pH 7.4), homogenized, and centrifuged as above. This pellet was further resuspended in a smaller volume of ice cold 10 mM Tris-HCl buffer comprising 0.1 mM EDTA (pH 7.4) and homogenized with a Polytron for 20-30 sec at 12.000 rpm. The protein content of this homogenate was determined with the Bio-Rad (Bradford) Protein Assay (Biorad Laboratories GmbH, München, Germany) according to the instructions of the manufacturer using gamma globulin as the standard. This homogenate was stored at −80° C. in aliquots and thawed immediately prior to use.
(§2) Aliquots of membrane preparations were thawed at RT, resuspended in assay buffer (D2, D3: 50 mM Tris-HCl, 120 mM NaCl, 5 mM MgCl2, 1 mM EDTA, 5 mM KCl, 1.5 mM CaCl2, pH=7.4; 5-HT2A: 50 mM Tris-HCl, 10 mM MgCl2, 1 mM EGTA, pH=7.4), homogenized with a Polytron for 20-30 sec at 12.000 rpm and adjusted to a final concentration of approximately 7.5 μg protein/well (D2, D3) and 15 μg protein/well (5-HT2A), respectively.
(§3) The binding affinity (Ki) of the compounds was determined using radioligand binding. Membranes were incubated in a total volume of 200 μl with a fixed concentration of radioligand (final concentration approximately 0.7 nM [^3H]-spiperone for D2, 0.5 nM [^3H]-spiperone for D3, and 1.1 nM [^3H]-ketanserin for 5-HT2A) and ten concentrations of test compound in ranging between 10 μM-0.1 nM for 1 h at RT. […] The nonspecific binding was determined with equally composed reaction mixtures in the presence of 10 μM unlabelled spiperone. Per well 45 μl of Microscint 40 (Perkin Elmer, Schwerzenbach, Switzerland) was added, plates for sealed, shaken for 20 min and counted for 3 min on a Topcount Microplate Scintillation Counter (Can berra Packard SA, Zürich, Switzerland) with quenching correction.
(§4) The CPM value for each duplicate of a concentration of competing compound was averaged (y1), then the % specific binding was calculated according to the equation (((y1−non-specific)/(total binding−non-specific))×100). Graphs were plotted with the % specific binding using XLfit, a curve fitting program that iteratively plots the data using Levenberg-Marquardt algorithm. The single site competition analysis equation used was y=A+((B−A)/(1+((x/C)D))), where y is the % specific binding, A is the minimum y, B is the maximum y, C is the IC50, x is the log 10 of the concentration of the competing compound and D is the slope of the curve (the Hill Coefficient). […] The affinity constant (K) was calculated using the Cheng-Prusoff equation Ki=(IC50/1+([L]/Kd), where [L] is the concentration of radioligand and Kd is the dissociation constant of the radioligand at the receptor as determined by the saturation isotherm.

human D3 receptor = human D3 receptor (Homo sapiens (Human), UniProt P35462); experiment: Radioligand binding assay, [3H]-spiperone, human D3 receptor; conditions: membranes of HEK293 EBNA cells expressing human D3; 0.5 nM [3H]-spiperone
Experimental: as §1, §2, §3, §4

human D2 receptor = human D2 receptor (Homo sapiens (Human), UniProt P14416); experiment: Radioligand binding assay, [3H]-spiperone, human D2 receptor; conditions: membranes of HEK293 EBNA cells expressing human D2; 0.7 nM [3H]-spiperone
Experimental: as §1, §2, §3
as §4, with “algorithm.” for “algorithm. The single site competition analysis equation used was y=A+((B−A)/(1+((x/C)D))), where y is the % specific binding, A is the minimum y, B is the maximum y, C is the IC50, x is the log 10 of the concentration of the competing compound and D is the slope of the curve (the Hill Coefficient).”

[1] = membranes of HEK293 EBNA cells expressing human 5-HT2A, 1.1 nM [3H]-ketanserin

Chain of human 5-HT2A receptor (P28223 whole entry): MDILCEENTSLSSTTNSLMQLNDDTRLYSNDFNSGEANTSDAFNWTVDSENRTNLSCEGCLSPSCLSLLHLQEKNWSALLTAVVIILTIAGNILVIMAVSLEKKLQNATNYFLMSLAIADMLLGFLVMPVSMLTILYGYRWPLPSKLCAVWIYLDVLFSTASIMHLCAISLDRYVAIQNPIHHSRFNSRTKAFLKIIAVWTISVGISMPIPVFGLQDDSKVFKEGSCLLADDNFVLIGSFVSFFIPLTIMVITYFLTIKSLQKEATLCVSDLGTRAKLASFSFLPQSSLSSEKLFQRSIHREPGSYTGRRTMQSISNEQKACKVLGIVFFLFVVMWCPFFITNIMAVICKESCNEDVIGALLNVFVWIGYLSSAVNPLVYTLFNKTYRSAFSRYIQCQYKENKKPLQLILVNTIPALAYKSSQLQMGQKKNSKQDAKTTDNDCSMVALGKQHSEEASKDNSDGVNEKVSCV
Chain of human D3 receptor (P35462 whole entry): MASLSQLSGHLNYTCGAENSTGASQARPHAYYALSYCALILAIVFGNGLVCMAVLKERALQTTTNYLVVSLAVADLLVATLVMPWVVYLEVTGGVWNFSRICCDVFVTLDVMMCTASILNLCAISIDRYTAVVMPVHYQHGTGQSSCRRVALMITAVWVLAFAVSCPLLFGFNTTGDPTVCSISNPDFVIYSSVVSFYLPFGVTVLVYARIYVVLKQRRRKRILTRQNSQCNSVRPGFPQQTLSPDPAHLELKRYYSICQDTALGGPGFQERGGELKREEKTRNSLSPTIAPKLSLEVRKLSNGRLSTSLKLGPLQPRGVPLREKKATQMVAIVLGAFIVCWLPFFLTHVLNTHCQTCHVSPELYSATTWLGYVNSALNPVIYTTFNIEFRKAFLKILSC
Chain of human D2 receptor (P14416 whole entry): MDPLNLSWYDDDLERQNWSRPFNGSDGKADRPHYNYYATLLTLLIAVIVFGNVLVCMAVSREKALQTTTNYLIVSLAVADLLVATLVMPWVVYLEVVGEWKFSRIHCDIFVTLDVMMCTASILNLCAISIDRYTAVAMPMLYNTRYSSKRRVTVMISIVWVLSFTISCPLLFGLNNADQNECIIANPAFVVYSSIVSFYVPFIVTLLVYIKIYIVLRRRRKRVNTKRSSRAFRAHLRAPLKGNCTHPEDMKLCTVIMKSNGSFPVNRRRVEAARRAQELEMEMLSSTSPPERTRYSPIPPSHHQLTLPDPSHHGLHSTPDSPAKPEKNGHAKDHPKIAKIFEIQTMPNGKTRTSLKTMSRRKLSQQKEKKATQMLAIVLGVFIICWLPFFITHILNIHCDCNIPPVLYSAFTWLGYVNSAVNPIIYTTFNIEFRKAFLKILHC

SMILES | melting point | pKi (human 5-HT2A receptor; [1]) | pKi (human D3 receptor) | pKi (human D2 receptor) | pKi (human 5-HT2A receptor)
O=C(N[C@H]1CC[C@H](CCN2CCN(c3nccc4c3CCO4)CC2)CC1)C1CCCO1 (mixture of isomers) [Example 43, trans-N-(4-{2-[4-(2,3-Dihydrofuro[3,2-c]pyridin-4-yl)-piperazin-1-yl]-ethyl}-cyclohexyl)-rac-tetrahydrofuran-2-carboxamide] | 176.5 °C | 8.20 | – | – | –
COCC(=O)N[C@H]1CC[C@H](CCN2CCN(c3nccc4sccc34)CC2)CC1 [Example 22, 2-Methoxy-N-{trans-4-[2-(4-thieno[3,2-c]pyridin-4-yl-piperazin-1-yl)-ethyl]-cyclohexyl}-acetamide] | – | 8.66 | 8.49 | 6.66 | –
O=C(CC1CCOCC1)N[C@H]1CC[C@H](CCN2CCN(c3nccc4sccc34)CC2)CC1 [Example 23, 2-(Tetrahydro-pyran-4-yl)-N-{trans-4-[2-(4-thieno[3,2-c]pyridin-4-yl-piperazin-1-yl)-ethyl]-cyclohexyl}-acetamide] | – | 8.52 | 8.57 | 6.84 | –
O=C(N[C@H]1CC[C@H](CCN2CCN(c3nccc4sccc34)CC2)CC1)C1CCOCC1 [Example 24, Tetrahydro-pyran-4-carboxylic acid {trans-4-[2-(4-thieno[3,2-c]pyridin-4-yl-piperazin-1-yl)-ethyl]-cyclohexyl}-amide] | – | – | 8.44 | 6.00 | 8.77
CO[C@@H]1CC[C@@H](CC(=O)N[C@H]2CC[C@H](CCN3CCN(c4nccc5sccc45)CC3)CC2)C1 [Example 25, 2-((1R,3R)-3-Methoxy-cyclopentyl)-N-{trans-4-[2-(4-thieno[3,2-c]pyridin-4-yl-piperazin-1-yl)-ethyl]-cyclohexyl}-acetamide] | – | 8.31 | 8.57 | 6.63 | –
CO[C@H]1CC[C@H](CC(=O)N[C@H]2CC[C@H](CCN3CCN(c4nccc5sccc45)CC3)CC2)C1 [Example 26, 2-((1S,3S)-3-Methoxy-cyclopentyl)-N-{trans-4-[2-(4-thieno[3,2-c]pyridin-4-yl-piperazin-1-yl)-ethyl]-cyclohexyl}-acetamide] | – | 8.37 | 8.52 | 6.61 | –
O=C(CO)N[C@H]1CC[C@H](CCN2CCN(c3nccc4sccc34)CC2)CC1 [Example 27, 2-Hydroxy-N-{trans-4-[2-(4-thieno[3,2-c]pyridin-4-yl-piperazin-1-yl)-ethyl]-cyclohexyl}-acetamide] | – | 8.85 | 8.85 | 6.66 | –
O=C(C[C@H]1CC[C@H](O)CC1)N[C@H]1CC[C@H](CCN2CCN(c3nccc4sccc34)CC2)CC1 [Example 28, 2-(trans-4-Hydroxy-cyclohexyl)-N-{trans-4-[2-(4-thieno[3,2-c]pyridin-4-yl-piperazin-1-yl)-ethyl]-cyclohexyl}-acetamide] | – | 8.40 | 8.22 | 6.41 | –
O=C(N[C@H]1CC[C@H](CCN2CCN(c3nccc4occc34)CC2)CC1)c1ccnc2ccccc12 [Example 29, Quinoline-4-carboxylic acid {trans-4-[2-(4-furo[3,2-c]pyridin-4-yl-piperazin-1-yl)-ethyl]-cyclohexyl}-amide] | – | 8.28 | 7.63 | 6.34 | –
CS(=O)(=O)N[C@H]1CC[C@H](CCN2CCN(c3nccc4sccc34)CC2)CC1 [Example 30, N-{trans-4-[2-(4-Thieno[3,2-c]pyridin-4-yl-piperazin-1-yl)-ethyl]-cyclohexyl}-methanesulfonamide] | – | 8.54 | 8.37 | 6.58 | –
CCS(=O)(=O)N[C@H]1CC[C@H](CCN2CCN(c3nccc4sccc34)CC2)CC1 [Example 31, Ethanesulfonic acid {trans-4-[2-(4-thieno[3,2-c]pyridin-4-yl-piperazin-1-yl)-ethyl]-cyclohexyl}-amide] | – | 8.54 | 8.37 | 6.66 | –
